Patent publication US11603359B2, “Benzothiadiazepine compounds and their use as bile acid modulators” (Albireo AB, priority 2019, dated 2023)

Columns and labels:
human IBAT = target: T1, human IBAT (Homo sapiens, UniProt Q12908); test: IBAT (h/m) assay, human IBAT-overexpressing cells, 3H-taurocholic acid uptake; format: cell-based; conditions: 0.25 μM 3H-taurocholic acid + 5 μM cold taurocholic acid, 20 minutes, read-out: hIBAT IC50
T1 construct: expressed in transfected cells; Puromycin-selected IBAT-overexpressing cells
T1 sequence (Q12908 1-348): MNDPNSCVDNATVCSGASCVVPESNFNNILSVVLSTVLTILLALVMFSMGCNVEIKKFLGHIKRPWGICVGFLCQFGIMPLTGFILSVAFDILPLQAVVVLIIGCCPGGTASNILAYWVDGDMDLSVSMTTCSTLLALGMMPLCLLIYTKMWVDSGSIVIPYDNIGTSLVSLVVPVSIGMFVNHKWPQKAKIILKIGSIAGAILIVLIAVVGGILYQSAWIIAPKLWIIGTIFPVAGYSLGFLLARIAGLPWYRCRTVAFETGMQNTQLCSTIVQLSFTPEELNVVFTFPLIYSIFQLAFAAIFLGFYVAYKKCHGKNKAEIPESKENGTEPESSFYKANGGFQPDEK
Method: 10,000 cells (Human or Mouse IBAT-overexpressing cells) were seeded in 96-wells plate (Corning CLS3809) in 200 μL MEM-alpha medium (Gibco 12571-063) supplemented with 10% FBS (Gibco 10438026) containing Puromycin (Gibco A1113803) (10 μg/mL) and incubated at 37° C. in 5% CO2 for 48 hours. After incubation, media was decanted from the wells and cells were washed two times with 300 μL of basal MEM-alpha medium (FBS-free). After decanting basal MEM-alpha medium each time, plates were tapped against paper towel to ensure maximum removal of residual media. Test inhibitor dilutions (highest test concentration being 10 μM, 3-fold serial dilution, 10 points) prepared in DMSO (Sigma D2650) were added in incubation mix (maintaining 0.2% final DMSO concentration) containing 0.25 μM 3H-taurocholic acid (ARC ART-1368) and 5 μM of cold taurocholic acid (Sigma T4009). 50 μL of incubation mix containing test inhibitors was then added to the wells (in duplicate) and the plates were incubated for 20 minutes in a CO2 incubator at 37° C. After incubation, the reaction was stopped by keeping the plates on ice water mix for 2-3 minutes and then the incubation mix was aspirated completely from the wells. The wells were washed two times with 250 μL of chilled unlabelled 1 mM taurocholic acid dissolved in HEPES (Gibco 15630080)-buffered (10 mM) HBSS (Gibco 14175079) (pH 7.4). The plates were tapped against a paper towel after every wash to ensure maximum removal of blocking buffer.
100 μL of MicroScint-20 (PerkinElmer 6013621) was added to the wells and kept overnight at room temperature before reading the plates in TopCount NXT™ Microplate Scintillation and Luminescence Counter from PerkinElmer under 3H Test protocol (set at 120 seconds reading time per well).
All test compounds were provided in powder form at room temperature. 10 mM DMSO stocks of the test compounds were prepared, aliquoted and stored at −20° C. From the 10 mM DMSO stock of the compounds, a 3-fold serial dilution in DMSO was prepared to get a total of 10 dilutions of the test compounds. 0.5 μL of this dilution in DMSO was added to 250 μL of FBS-free basal media containing 3H-taurocholic acid and cold taurocholic acid to prepare the incubation mixture.

[1] = Bidirectional permeability assay (Caco-2 cells); format: in vitro ADME; conditions: human, pH 7.4, Caco-2 monolayers, absorptive direction (A2B), FaSSIF donor buffer
Method: Caco-2 cells (Evotec) were seeded at a density of 70,000 cells/well in Millicell® 24-well cell culture insert plates and maintained in an incubator (37° C., 5% CO2, 95% RH) for 21 days with media change on alternate days.
Stock solutions (10 mM) of the test compounds, atenolol (low permeability marker), propranolol (high permeability marker) and digoxin (substrate for P-gp transport pathway) were prepared in dimethylsulfoxide (DMSO). An intermediate stock solution (1 mM) was prepared by diluting 10 μL of 10 mM master stock solution with 90 μL of neat DMSO. A working stock solution (10 μM) was prepared by diluting 50 μL of 1 mM with 4950 μL of FaSSIF buffer. Post addition of compounds to the FaSSIF, samples were subjected to sonication for 2 hours, and centrifuged at 4000 RPM for 30 minutes at 37° C. The 4 mL of resultant supernatant was directly used in the assay. The final DMSO concentration in the transport experiments was 1%.
On the day of assay, Caco-2 monolayers were washed twice with transport buffer (HBSS, pH 7.4) and pre-incubated for 30 min (37° C., 5% CO2, 95% RH) in an incubator. The electrical resistance of the monolayers was measured with a Millicell®—ERS system. Monolayers with trans-epithelial electrical resistance (TEER) values greater than 350 ohm·cm^2 were selected for the assay.
The assay was conducted in absorptive direction (A2B) and secretory (B2A) directions. Transport experiments were initiated by addition of transport assay buffer (FaSSIF buffer prepared in HBSS) consisting of compounds to the donor compartment (apical chamber A-B; basolateral chamber B-A) in duplicate (n=2) wells. Drug free HBSS buffer (pH 7.4) containing 1% bovine serum albumin (BSA) was introduced to the receiver (A-B-basolateral; B-A-Apical) compartments. The volumes of apical and basolateral compartments were 0.4 and 0.8 mL, respectively. After adding dosing solution, plates were incubated in an incubator for 120 minutes at 37° C. After 120 minutes, donor and receiver samples were collected and matrix matched (1:1, 30 μL study sample+30 μL blank buffer) with the opposite buffer. Dosing samples matrix matched (1:1, 30 μL study sample+30 μL blank buffer) with the opposite buffer. Samples were processed by adding acetonitrile containing internal standard (60 μL study sample+200 μL acetonitrile containing internal standard—Tolbutamide, 500 ng/mL). Samples were vortexed and centrifuged at 4000 rpm for 10 minutes. The obtained supernatant (100 μL) was diluted with 100 μL of water and transferred to fresh 96 well plates. The concentration of compounds in the samples was analyzed by liquid chromatography tandem mass spectrometry (LC-MS/MS) method using discovery grade bio-analytical method, as applicable.
The mean apparent permeability (Papp, ×10^−6 cm/sec) of the test compounds, atenolol, propranolol and digoxin were calculated as follows:
[formula] where dq/dt=rate of transport (rate of transport of compound in the receiver compartment), C0=initial concentration in the donor compartment, A=surface area of the effective filter membrane.

Row | IC50 (human IBAT) [nM] | Papp A→B at 120 min, 10 µM [1] [×10⁻⁶ cm/s] | SMILES
1 | 12 | 9.5 | CCCCC1(CCCC)CN(c2ccccc2)c2cc(SC)c(OC(C)CC(=O)O)cc2S(=O)(=O)N1 (stereo not drawn) [Example 8, 3-((3,3-Dibutyl-7-(methylthio)-1,1-dioxido-5-phenyl-2,3,4,5-tetrahydro-1,2,5-benzothiadiazepin-8-yl)oxy)butanoic acid]
2 | 3 | 14.2 | CCCCC1(CC)CN(c2ccccc2)c2cc(N(C)C)c(OCCC(=O)O)cc2S(=O)(=O)N1 (single isomer, unassigned) [Example 12, 3-((3-butyl-7-(dimethylamino)-3-ethyl-1,1-dioxido-5-phenyl-2,3,4,5-tetrahydro-1,2,5-benzothiadiazepin-8-yl)oxy)propanoic acid]
3 | 3 | 13.1 | CCCCC1(CC)CN(c2ccccc2)c2cc(N(C)C)c(OCCC(=O)O)cc2S(=O)(=O)N1 (racemic) [Example 11, 3-((3-Butyl-7-(dimethylamino)-3-ethyl-1,1-dioxido-5-phenyl-2,3,4,5-tetrahydro-1,2,5-benzothiadiazepin-8-yl)oxy)propanoic acid]
4 | 7 | 9.2 | CCCCC1(CCCC)CN(c2ccccc2)c2cc(SC)c(OCCC(=O)O)cc2S(=O)(=O)N1 [Example 1, 3-((3,3-Dibutyl-7-(methylthio)-1,1-dioxido-5-phenyl-2,3,4,5-tetrahydro-1,2,5-benzothiadiazepin-8-yl)oxy)propanoic acid]
5 | 2 | 2.1 | CCCCC1(CCCC)CN(c2ccc(O)cc2)c2cc(SC)c(OCCC(=O)O)cc2S(=O)(=O)N1 [Example 10, 3-((3,3-dibutyl-5-(4-hydroxyphenyl)-7-(methylthio)-1,1-dioxido-2,3,4,5-tetrahydro-1,2,5-benzothiadiazepin-8-yl)oxy)propanoic acid]
6 | 2 | 0.4 | CCCCC1(CCCC)CN(c2ccccc2)c2cc(SC)c(OCC(O)C(=O)O)cc2S(=O)(=O)N1 (single isomer, unassigned) [Example 7, 3-((3,3-dibutyl-7-(methylthio)-1,1-dioxido-5-phenyl-2,3,4,5-tetrahydro-1,2,5-benzothiadiazepin-8-yl)oxy)-2-hydroxypropanoic acid]
7 | 21 | 10 | CCCCC1(CCCC)CN(c2ccccc2)c2cc(Cl)c(OCCC(=O)O)cc2S(=O)(=O)N1 [Example 9, 3-((3,3-dibutyl-7-chloro-1,1-dioxido-5-phenyl-2,3,4,5-tetrahydro-1,2,5-benzothiadiazepin-8-yl)oxy)propanoic acid]
8 | 5 | 1 | CCCCC1(CCCC)CN(c2ccccc2)c2cc(SC)c(OCC(O)C(=O)O)cc2S(=O)(=O)N1 (racemic) [Example 5, 3-((3,3-dibutyl-7-(methylthio)-1,1-dioxido-5-phenyl-2,3,4,5-tetrahydro-1,2,5-benzothiadiazepin-8-yl)oxy)-2-hydroxypropanoic acid]
9 | 2 | 7.6 | CCCCC1(CC)CN(c2ccccc2)c2cc(SC)c(OCCC(=O)O)cc2S(=O)(=O)N1 (single isomer, unassigned) [Example 4, 3-((3-butyl-3-ethyl-7-(methylthio)-1,1-dioxido-5-phenyl-2,3,4,5-tetrahydro-1,2,5-benzothiadiazepin-8-yl)oxy)propanoic acid]
